Reference: patent US10882837B2, “Amide compounds and use thereof” (ALPHALA CO., LTD., priority 2017, dated 2021)

What was measured:
[1] = molecular target: T1, glucagon receptor (GCGR) (Homo sapiens, UniProt P47871); test: Glucagon cAMP inhibition assay (Cisbio cAMP Dynamic 2 HTRF); format: cell-based; details: GCGR overexpressed CHO-K1 cells or human primary hepatocytes (not specified); glucagon at EC50
T1 construct: expressed in transfected cells; host or cells: CHO-K1
Method in brief: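 GCGR-overexpressing CHO-K1 cells or human primary hepatocytes in HBSS with 0.1% BSA and 800 nM IBMX, pre-incubated 30 min with compound (1% DMSO final), then stimulated 30 min at room temperature with glucagon at its EC50. cAMP measured by HTRF after 60 min lysis; IC50 from non-linear regression.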

[2] = molecular target: GCGR (Homo sapiens, UniProt P47871); test: I125-glucagon binding assay (competition, GCGR membrane fractions); parameters: expressed in transfected cells; host or cells: CHO-K1; details: for IC50: competition with I125-glucagon 0.0625 nM, membrane fractions from GCGR overexpressed CHO-K1 cells
Chain of GCGR (P47871 26-477, species assumed): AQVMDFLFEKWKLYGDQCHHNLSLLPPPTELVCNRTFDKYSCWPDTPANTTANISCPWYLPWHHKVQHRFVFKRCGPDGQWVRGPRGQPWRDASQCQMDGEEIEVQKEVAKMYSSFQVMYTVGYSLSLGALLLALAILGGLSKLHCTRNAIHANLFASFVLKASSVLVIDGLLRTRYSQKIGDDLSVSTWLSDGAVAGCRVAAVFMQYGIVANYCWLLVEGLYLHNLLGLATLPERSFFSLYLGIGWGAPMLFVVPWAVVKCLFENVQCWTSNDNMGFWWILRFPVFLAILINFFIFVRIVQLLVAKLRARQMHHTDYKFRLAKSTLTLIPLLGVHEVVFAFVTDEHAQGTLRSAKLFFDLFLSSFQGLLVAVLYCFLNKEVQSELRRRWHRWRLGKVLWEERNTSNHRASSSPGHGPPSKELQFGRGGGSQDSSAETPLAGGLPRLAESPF
Method in brief: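 Membranes from CHO-K1 cells overexpressing GCGR (7.5 µg/well) were preincubated 5 min with serially diluted compound in 50 mM Tris pH 7.4, 0.5% BSA. I125-glucagon was then added at 0.0625 nM final and incubated 30 min at 25 °C. After filtration, bound radioactivity was counted and IC50 derived by non-linear regression.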

T1 sequence (P47871 26-477, species assumed): as above

SMILES	IC50 [1] [nM]	IC50 [2] [nM]	inhibition at 30 µM ([2]; compound at 30 μM, read-out: percentage of inhibition (number in parenthesis in IC50 binding column)) [%]
CCOC(=O)CCNC(=O)c1ccc(NC(c2ccc(-c3nnc(-c4ccc(F)cc4)o3)cc2)C(C)CC)cc1 (centres unmarked) [Compound 1-29, ethyl 3-(4-((1-(4-(5-(4-fluorophenyl)-1,3,4-oxadiazol-2-yl)phenyl)-2-methylbutyl)amino)benzamido)propanoate]	114	4720	
COC(=O)CCNC(=O)c1ccc(N[C@H](c2ccc(-c3noc(-c4ccccc4)n3)cc2)C(C)C)cc1 [Compound 2-49, methyl (S)-3-(4-((2-methyl-1-(4-(5-phenyl-1,2,4-oxadiazol-3-yl)phenyl)propyl)amino)benzamido)propanoate]	55.8	285	
CCOC(=O)CCNC(=O)c1ccc(NC(c2ccc(-c3noc(-c4ccccc4)n3)cc2)C2CCCCC2)cc1 (centres unmarked) [Compound 2-16, ethyl 3-(4-((cyclohexyl(4-(5-phenyl-1,2,4-oxadiazol-3-yl)phenyl)methyl)amino)benzamido)propanoate]	438	178	
CCOC(=O)CCNC(=O)c1ccc(N[C@@H](c2ccc(-c3nnc(C(F)(F)F)o3)cc2)C(C)C)cc1 [Compound 1-56, ethyl (R)-3-(4-((2-methyl-1-(4-(5-(trifluoromethyl)-1,3,4-oxadiazol-2-yl)phenyl)propyl)amino)benzamido)propanoate]	164	> 30000	
CCCCC(Nc1ccc(C(=O)NCCC(=O)O)cc1)c1ccc(-c2noc(C(C)(C)C)n2)cc1 (centres unmarked) [Compound 2-4, 3-(4-((1-(4-(5-(tert-butyl)-1,2,4-oxadiazol-3-yl)phenyl)pentyl)amino)benzamido)propanoic acid]	329	164	
CCCC[C@@H](Nc1ccc(C(=O)NCCC(=O)OCC)cc1)c1ccc(-c2noc(-c3ccccn3)n2)cc1 [Compound 2-39, ethyl (R)-3-(4-((1-(4-(5-(pyridin-2-yl)-1,2,4-oxadiazol-3-yl)phenyl)pentyl)amino)benzamido)propanoate]	672	> 30000	
CCC(C)C(Nc1ccc(C(=O)NCCC(=O)O)cc1)c1ccc(-c2nnc(C(F)(F)F)o2)cc1 (centres unmarked) [Compound 1-32]	3480	885	
CCCC[C@@H](Nc1ccc(C(=O)NCCC(=O)O)cc1)c1ccc(-c2noc(C(F)(F)F)n2)cc1 [Compound 2-48, (R)-3-(4-((1-(4-(5-(trifluoromethyl)-1,2,4-oxadiazol-3-yl)phenyl)pentyl)amino)benzamido)propanoic acid]	1570	1180	
CC(C)C(Nc1ccc(C(=O)NCCC(=O)O)cc1)c1ccc(-c2noc(-c3ccccc3)n2)cc1 (centres unmarked) [Compound 2-26, 3-(4-((2-methyl-1-(4-(5-phenyl-1,2,4-oxadiazol-3-yl)phenyl)propyl)amino)benzamido)propanoic acid]	570	40	
CCOC(=O)CCNC(=O)c1ccc([C@H](Nc2ccc(-c3nnc(-c4ccccc4)o3)cc2)C(C)C)cc1 [Compound 3-13, (R)-ethyl 3-(4-(2-methyl-1-(4-(5-phenyl-1,3,4-oxadiazol-2-yl)phenylamino)propyl)benzamido)propanoate]	207	> 30000	
CCCC[C@H](Nc1ccc(C(=O)NCCC(=O)OCC)cc1)c1ccc(-c2noc(-c3ccccn3)n2)cc1 [Compound 2-37, ethyl (S)-3-(4-((1-(4-(5-(pyridin-2-yl)-1,2,4-oxadiazol-3-yl)phenyl)pentyl)amino)benzamido)propanoate]	89.7	1100	
CCCC[C@H](Nc1ccc(C(=O)NCCC(=O)OCC)cc1)c1ccc(-c2noc(C(F)(F)F)n2)cc1 [Compound 2-45, ethyl (S)-3-(4-((1-(4-(5-(trifluoromethyl)-1,2,4-oxadiazol-3-yl)phenyl)pentyl)amino)benzamido)propanoate]	118	> 30000	
COc1ccc(-c2nnc(-c3ccc(C(Nc4ccc(C(=O)NCCC(=O)O)cc4)C(C)C)cc3)o2)cc1 (centres unmarked) [Compound 1-26, 3-(4-((1-(4-(5-(4-methoxyphenyl)-1,3,4-oxadiazol-2-yl)phenyl)-2-methylpropyl)amino)benzamido)propanoic acid]	4380	198	
CCOC(=O)CCNC(=O)c1ccc(N[C@H](c2ccc(-c3nnc(-c4ccccc4)o3)cc2)C(C)CC)cc1 (stereo partly drawn) [Compound 1-47, ethyl 3-(4-(((1S)-2-methyl-1-(4-(5-phenyl-1,3,4-oxadiazol-2-yl)phenyl)butyl)amino)benzamido)propanoate]	37	226	28
CCCCC(Nc1ccc(C(=O)NCCC(=O)OC)cc1)c1ccc(-c2nnc(-c3ccccn3)o2)cc1 (centres unmarked) [Compound 1-38, methyl 3-(4-((1-(4-(5-(pyridin-2-yl)-1,3,4-oxadiazol-2-yl)phenyl)pentyl)amino)benzamido)propanoate]	80	1580	

Next, values leading:

IC50 [1] [nM]	IC50 [2] [nM]	inhibition at 30 µM ([2]; compound at 30 μM, read-out: percentage of inhibition (number in parenthesis in IC50 binding column)) [%]	SMILES
186	602		CCCC[C@@H](Nc1ccc(C(=O)NCCC(=O)OCC)cc1)c1ccc(-c2nc3ccccc3o2)cc1 [Compound 4-9, ethyl (R)-3-(4-((1-(4-(benzo[d]oxazol-2-yl)phenyl)pentyl)amino)benzamido)propanoate]
209	208		CC(C)C(Oc1ccc(-c2nc3ccccc3s2)cc1)c1ccc(C(=O)NCCC(=O)O)cc1 (centres unmarked) [Compound 7-4, 3-(4-(1-(4-(Benzo[d]thiazol-2-yl)phenoxy)-2-methylpropyl)benzamido)propanoic acid]
133	1110		CC(C)C(Oc1ccc(C(=O)NCCC(=O)O)cc1)c1ccc(-c2nc3ccccc3s2)cc1 (centres unmarked) [Compound 6-2, 3-(4-(1-(4-(Benzo[d]thiazol-2-yl)phenyl)-2-methylpropoxy)benzamido)propanoic acid]
30.3	188		CCOC(=O)CCNC(=O)c1ccc(N[C@H](c2ccc(-c3nc4ccccc4s3)cc2)C(C)C)cc1 [Compound 4-25, ethyl (S)-3-(4-((1-(4-(benzo[d]thiazol-2-yl)phenyl)-2-methylpropyl)amino)benzamido)propanoate]
1080	101		CCCCC(Nc1ccc(C(=O)NCCC(=O)O)cc1)c1ccc(-c2nc3ccccc3o2)cc1 (centres unmarked) [Compound 4-4, 3-(4-((1-(4-(benzo[d]oxazol-2-yl)phenyl)pentyl)amino)benzamido)propanoic acid]
361	31600		CCOC(=O)CCNC(=O)c1ccc(N[C@H](CC(C)C)c2ccc(-c3nc4ccccc4o3)cc2)cc1 [Compound 4-13, ethyl (R)-3-(4-((1-(4-(benzo[d]oxazol-2-yl)phenyl)-3-methylbutyl)amino)benzamido)propanoate]
292	177		CC(C)C(Oc1ccc(-c2nc3ccccc3o2)cc1)c1ccc(C(=O)NCCC(=O)O)cc1 (centres unmarked) [Compound 7-2, 3-(4-(1-(4-(Benzo[d]oxazol-2-yl)phenoxy)-2-methylpropyl)benzamido)propanoic acid]
96	745		CCOC(=O)CCNC(=O)c1ccc(N[C@@H](CC(C)C)c2ccc(-c3nc4ccccc4o3)cc2)cc1 [Compound 4-17, ethyl (S)-3-(4-((1-(4-(benzo[d]oxazol-2-yl)phenyl)-3-methylbutyl)amino)benzamido)propanoate]
